The NIST ThermoML archive (doi:10.1021/je0301040)

Test: xn = mol fraction of the nth substance listed

FC(Cl)(Cl)Cl [trichlorofluoromethane] + FC(F)Cl
Conditions | mass density [kg/m3]
424.96 K, 293.85 kPa, Fluid (supercritical or subcritical phases), Burnett expansion method, x1 = 0.832 | 11.0367
424.96 K, 373.9 kPa, Fluid (supercritical or subcritical phases), Burnett expansion method, x1 = 0.832 | 14.1459
424.96 K, 418.92 kPa, Fluid (supercritical or subcritical phases), Burnett expansion method, x1 = 0.832 | 15.9304
424.96 K, 445.3 kPa, Gas, isochoric method, x1 = 0.832 | 131.354
424.96 K, 567.37 kPa, Fluid (supercritical or subcritical phases), Burnett expansion method, x1 = 0.832 | 21.9341
424.96 K, 662.1 kPa, Gas, isochoric method, x1 = 0.832 | 200.808
424.96 K, 663.7 kPa, Gas, isochoric method, x1 = 0.832 | 200.808
424.96 K, 715.19 kPa, Fluid (supercritical or subcritical phases), Burnett expansion method, x1 = 0.832 | 28.1109
424.96 K, 797.38 kPa, Fluid (supercritical or subcritical phases), Burnett expansion method, x1 = 0.832 | 31.6606
424.96 K, 967.2 kPa, Gas, isochoric method, x1 = 0.832 | 303.998
424.96 K, 969 kPa, Gas, isochoric method, x1 = 0.832 | 303.998
424.96 K, 1086 kPa, Fluid (supercritical or subcritical phases), Burnett expansion method, x1 = 0.832 | 44.6324
424.96 K, 1298.4 kPa, Gas, isochoric method, x1 = 0.832 | 426.053
424.96 K, 1299.4 kPa, Gas, isochoric method, x1 = 0.832 | 426.053
424.96 K, 1617.2 kPa, Gas, isochoric method, x1 = 0.832 | 556.221
424.96 K, 1619.2 kPa, Gas, isochoric method, x1 = 0.832 | 556.221
424.96 K, 3854.3 kPa, Liquid, Pycnometric method, x1 = 0.8336 | 1012.94
424.96 K, 4517.9 kPa, Liquid, Pycnometric method, x1 = 0.8336 | 1028.76
424.96 K, 7331.5 kPa, Liquid, Pycnometric method, x1 = 0.8336 | 1077.17
424.96 K, 20744 kPa, Liquid, Pycnometric method, x1 = 0.8336 | 1193.05
424.96 K, 49662 kPa, Liquid, Pycnometric method, x1 = 0.8336 | 1310.9
424.96 K, 65344 kPa, Liquid, Pycnometric method, x1 = 0.8336 | 1352.8
424.97 K, 150.03 kPa, Fluid (supercritical or subcritical phases), Burnett expansion method, x1 = 0.832 | 5.5536
424.97 K, 153.48 kPa, Fluid (supercritical or subcritical phases), Burnett expansion method, x1 = 0.832 | 5.6866
424.97 K, 215.05 kPa, Fluid (supercritical or subcritical phases), Burnett expansion method, x1 = 0.832 | 8.0157
424.97 K, 300.89 kPa, Fluid (supercritical or subcritical phases), Burnett expansion method, x1 = 0.832 | 11.3011
424.97 K, 409.41 kPa, Fluid (supercritical or subcritical phases), Burnett expansion method, x1 = 0.832 | 15.5588
424.97 K, 444.8 kPa, Gas, isochoric method, x1 = 0.832 | 131.354
424.97 K, 518.76 kPa, Fluid (supercritical or subcritical phases), Burnett expansion method, x1 = 0.832 | 19.9414
424.97 K, 580.12 kPa, Fluid (supercritical or subcritical phases), Burnett expansion method, x1 = 0.832 | 22.4579
424.97 K, 977.19 kPa, Fluid (supercritical or subcritical phases), Burnett expansion method, x1 = 0.832 | 39.6298
424.97 K, 1317.5 kPa, Fluid (supercritical or subcritical phases), Burnett expansion method, x1 = 0.832 | 55.8677
424.97 K, 3592.7 kPa, Liquid, Pycnometric method, x1 = 0.8336 | 1005.84
424.97 K, 4190.2 kPa, Liquid, Pycnometric method, x1 = 0.8336 | 1021.29
424.97 K, 4853 kPa, Liquid, Pycnometric method, x1 = 0.8336 | 1035.91
424.97 K, 5457.4 kPa, Liquid, Pycnometric method, x1 = 0.8336 | 1047.58
424.97 K, 6169.4 kPa, Liquid, Pycnometric method, x1 = 0.8336 | 1059.78
424.97 K, 14203 kPa, Liquid, Pycnometric method, x1 = 0.8336 | 1148.26
424.97 K, 27900 kPa, Liquid, Pycnometric method, x1 = 0.8336 | 1230.65
424.97 K, 35700 kPa, Liquid, Pycnometric method, x1 = 0.8336 | 1263.74
424.97 K, 42738 kPa, Liquid, Pycnometric method, x1 = 0.8336 | 1289.02
424.97 K, 56282 kPa, Liquid, Pycnometric method, x1 = 0.8336 | 1329.7
424.97 K, 61980 kPa, Liquid, Pycnometric method, x1 = 0.8336 | 1344.58
429.96 K, 2000.6 kPa, Gas, isochoric method, x1 = 0.832 | 715.595
429.96 K, 2000.8 kPa, Gas, isochoric method, x1 = 0.832 | 715.595
429.96 K, 2002.4 kPa, Gas, isochoric method, x1 = 0.832 | 715.595
474.95 K, 4750 kPa, Fluid (supercritical or subcritical phases), Burnett expansion method, x1 = 0.832 | 271.514
474.97 K, 1108 kPa, Fluid (supercritical or subcritical phases), Burnett expansion method, x1 = 0.832 | 39.0371
474.98 K, 322.47 kPa, Fluid (supercritical or subcritical phases), Burnett expansion method, x1 = 0.832 | 10.7116
474.98 K, 601.7 kPa, Fluid (supercritical or subcritical phases), Burnett expansion method, x1 = 0.832 | 20.4396
474.98 K, 1965.5 kPa, Fluid (supercritical or subcritical phases), Burnett expansion method, x1 = 0.832 | 74.5021
474.98 K, 1995.2 kPa, Fluid (supercritical or subcritical phases), Burnett expansion method, x1 = 0.832 | 75.9597
474.98 K, 3255.8 kPa, Fluid (supercritical or subcritical phases), Burnett expansion method, x1 = 0.832 | 142.18
474.98 K, 3296.6 kPa, Fluid (supercritical or subcritical phases), Burnett expansion method, x1 = 0.832 | 144.503
474.98 K, 4786.8 kPa, Fluid (supercritical or subcritical phases), Burnett expansion method, x1 = 0.832 | 274.877
474.98 K, 5920.1 kPa, Fluid (supercritical or subcritical phases), Burnett expansion method, x1 = 0.832 | 522.524
474.98 K, 13635 kPa, Fluid (supercritical or subcritical phases), Burnett expansion method, x1 = 0.832 | 993.788
474.99 K, 590.67 kPa, Fluid (supercritical or subcritical phases), Burnett expansion method, x1 = 0.832 | 20.1833
474.99 K, 1081.5 kPa, Fluid (supercritical or subcritical phases), Burnett expansion method, x1 = 0.832 | 38.4124
474.99 K, 1126.1 kPa, Fluid (supercritical or subcritical phases), Burnett expansion method, x1 = 0.832 | 39.9341
474.99 K, 1933.1 kPa, Fluid (supercritical or subcritical phases), Burnett expansion method, x1 = 0.832 | 73.0924
474.99 K, 3211.7 kPa, Fluid (supercritical or subcritical phases), Burnett expansion method, x1 = 0.832 | 139.089
474.99 K, 4708.1 kPa, Fluid (supercritical or subcritical phases), Burnett expansion method, x1 = 0.832 | 264.786
475 K, 5875.1 kPa, Fluid (supercritical or subcritical phases), Burnett expansion method, x1 = 0.832 | 503.942
475 K, 5905.8 kPa, Fluid (supercritical or subcritical phases), Burnett expansion method, x1 = 0.832 | 518.038
475 K, 12413 kPa, Fluid (supercritical or subcritical phases), Burnett expansion method, x1 = 0.832 | 958.868
475.01 K, 13484 kPa, Fluid (supercritical or subcritical phases), Burnett expansion method, x1 = 0.832 | 988.822
